Data published in publication PMC10504015, “Design, synthesis, and enzyme inhibition evaluation of some novel Mono- and Di-O-β-D-Glycopyranosyl Chalcone analogues with molecular docking studies” (Turkish Journal of Chemistry, 2022).

Key:
Assay type in all cases: biochemical
[1] = molecular target: AChE (Electrophorus electricus, UniProt O42275); details: electric eel AChE, Tris-HCl buffer pH 8.0
Description: The AChE from electric eel inhibitory effects of the newly synthesized compounds were performed using microplate reader with minor modification according to the standard method. […] The activity of AChE solution was adjusted as 0.2 U/mL in Tris-HCl buffer (pH 8.0, 50 mM). For each wells, 50 μL buffer (pH 8.0, 50 mM), 125 μL 5,5-dithio-bis(2-nitrobenzoic)acid (3 mM), 25 μL of AChE (0.2 U/mL) and 25 μL of compounds were added and incubated 20 min at room temperature. After incubation, 25 μL of acetylthiocholine iodide (15 mM) was pipetted into wells. Absorbance was measured at 412 nm.

[2] = molecular target: tyrosinase (Agaricus bisporus, UniProt C7FF04); test: Tyrosinase from mushroom inhibitory effect (L-DOPA substrate, 475 nm); details: phosphate buffer pH 6.8, read-out: IC50 on tyrosinase (Tyr)
Sequence of tyrosinase (C7FF04 1-392 limits assumed): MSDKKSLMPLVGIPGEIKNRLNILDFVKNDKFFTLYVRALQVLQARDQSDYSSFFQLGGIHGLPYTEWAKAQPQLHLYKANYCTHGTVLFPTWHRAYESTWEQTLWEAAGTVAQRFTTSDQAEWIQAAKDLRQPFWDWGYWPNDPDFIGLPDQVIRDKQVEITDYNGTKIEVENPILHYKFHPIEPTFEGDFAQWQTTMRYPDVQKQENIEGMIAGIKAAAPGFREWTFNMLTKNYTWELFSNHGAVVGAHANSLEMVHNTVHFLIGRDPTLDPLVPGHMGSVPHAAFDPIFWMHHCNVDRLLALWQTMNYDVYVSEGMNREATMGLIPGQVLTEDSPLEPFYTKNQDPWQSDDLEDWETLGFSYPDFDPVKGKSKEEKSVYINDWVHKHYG
Description: The tyrosinase inhibitory effects of the newly synthesized compounds were performed using microplate reader with minor modifications according to the standard method. […] The activity of tyrosinase solution was adjusted as 250 U/mL in phosphate buffer (pH 6.8, 100 mM). For each wells, 100 μL buffer (pH 6.8, 100 mM), 20 μL of tyrosinase (0.2 U/mL), and 20 μL of compounds were added and incubated 20 min. After incubation, 20 μL of 3,4-dihydroxy-L-phenylalanine (3 mM) was pipetted into wells. Absorbance was measured at 475 nm.

[3] = molecular target: α-glycosidase; test: α-Glycosidase inhibitory effect (p-nitrophenyl-α-D glucopyranoside substrate); details: enzyme 2 U/mL, phosphate buffer pH 6.8, 37 °C; nd: not detected
Description: α-glycosidase inhibitory effect of the newly synthesized samples that were solvated in DMSO was performed with some minor modifications of the standard method. The activity degree of the enzyme solution was adjusted as 2 U/mL in phosphate buffer (pH 6.8, 50 mM). For each test tube, 150 μL of the sample, 150 μL of the enzyme (2 U/mL), and 150 μL of buffer were pipetted. After the incubation for 15 min at 37 °C, 150 μL of p-nitrophenyl-α-D glucopyranoside (20 mM, Sigma-Aldrich) was added and then their absorbance was monitored for 20 min at 400 nm.

Sequence of AChE (O42275 24-633): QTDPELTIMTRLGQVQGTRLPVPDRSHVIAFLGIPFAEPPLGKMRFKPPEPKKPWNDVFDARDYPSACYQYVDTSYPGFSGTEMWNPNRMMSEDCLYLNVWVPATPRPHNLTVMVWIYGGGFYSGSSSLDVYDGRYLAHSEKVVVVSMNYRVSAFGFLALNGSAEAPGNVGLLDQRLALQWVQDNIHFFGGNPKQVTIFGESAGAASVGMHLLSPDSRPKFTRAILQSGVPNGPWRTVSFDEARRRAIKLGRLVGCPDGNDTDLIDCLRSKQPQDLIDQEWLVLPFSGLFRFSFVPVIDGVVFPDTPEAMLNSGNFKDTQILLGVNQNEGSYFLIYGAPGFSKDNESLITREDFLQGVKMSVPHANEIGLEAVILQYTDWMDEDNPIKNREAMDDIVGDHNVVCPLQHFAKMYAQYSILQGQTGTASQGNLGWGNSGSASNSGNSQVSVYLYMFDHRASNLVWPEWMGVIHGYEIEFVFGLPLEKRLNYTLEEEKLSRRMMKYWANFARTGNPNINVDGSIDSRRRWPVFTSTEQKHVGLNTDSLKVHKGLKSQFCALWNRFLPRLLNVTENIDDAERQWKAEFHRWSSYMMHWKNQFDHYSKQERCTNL

| SMILES | IC50 [1] [µM] | IC50 [2] [µM] | IC50 [3] [µM] |
| --- | --- | --- | --- |
| COc1cc(C(=O)/C=C/c2ccccc2O)ccc1O[C@@H]1O[C@H](CO)[C@@H](O)[C@H](O)[C@H]1O [7a, (2E)-1-(4-O-β-D-glucopyranosyl-3-methoxyphenyl)-3-(2-hydroxyphenyl)prop-2-en-1-one] | > 100 | > 100 | – |
| COc1cc(C(=O)/C=C/c2cccc(O)c2)ccc1O[C@@H]1O[C@H](CO)[C@@H](O)[C@H](O)[C@H]1O [7b, (2E)-1-(4-O-β-D-glucopyranosyl-3-methoxyphenyl)-3-(3-hydroxyphenyl)prop-2-en-1-one] | > 100 | 82.5 ± 4.5 | – |
| COc1cc(C(=O)/C=C/c2ccc(O)cc2)ccc1OC1OC(CO)C(O)C(O)C1O [7c, (2E)-1-(4-O-β-D-glucopyranosyl-3-methoxyphenyl)-3-(4-hydroxyphenyl)prop-2-en-1-one] | > 100 | 11.1 ± 0.55 | – |
| COc1cc(C(=O)/C=C/c2ccccc2O[C@@H]2O[C@H](CO)[C@@H](O)[C@H](O)[C@H]2O)ccc1O[C@@H]1O[C@H](CO)[C@@H](O)[C@H](O)[C@H]1O [8a, (2E)-1-(4-O-β-D-glucopyranosyl-3-methoxyphenyl)-3-(2-O-β-D-glucopyranosylphenyl)-prop-2-en-1-one] | > 100 | > 100 | – |
| COc1cc(C(=O)/C=C/c2cccc(OC3OC(CO)C(O)C(O)C3O)c2)ccc1OC1OC(CO)C(O)C(O)C1O [8b, (2E)-1-(4-O-β-D-glucopyranosyl-3-methoxyphenyl)-3-(3-O-β-D-glucopyranosylphenyl)-prop-2-en-1-one] | 81.8 ± 3.4 | > 100 | – |
| COc1cc(C(=O)/C=C/c2ccc(O[C@@H]3O[C@H](CO)[C@@H](O)[C@H](O)[C@H]3O)cc2)ccc1O[C@@H]1O[C@H](CO)[C@@H](O)[C@H](O)[C@H]1O [8c, (2E)-1-(4-O-β-D-glucopyranosyl-3-methoxyphenyl)-3-(4-O-β-D-glucopyranosylphenyl)-prop-2-en-1-one] | > 100 | 53.6 ± 2.31 | – |
| COc1ccccc1/C=C/C(=O)c1cc(O)cc(O[C@@H]2O[C@H](CO)[C@@H](O)[C@H](O)[C@H]2O)c1 [16a, (2E)-1-(3-O-β-D-glucopyranosyl-5-hyroxyphenyl)-3-(2-methoxyphenyl)-prop-2-en-1-one] | > 100 | > 100 | 12870 ± 90 |
| COc1cccc(/C=C/C(=O)c2cc(O)cc(O[C@@H]3O[C@H](CO)[C@@H](O)[C@H](O)[C@H]3O)c2)c1 [16b, (2E)-1-(3-O-β-D-glucopyranosyl-5-hyroxyphenyl)-3-(3-methoxyphenyl)-prop-2-en-1-one] | > 100 | > 100 | 6600 ± 50 |
| COc1ccc(/C=C/C(=O)c2cc(O)cc(O[C@@H]3O[C@H](CO)[C@@H](O)[C@H](O)[C@H]3O)c2)cc1 [16c, (2E)-1-(3-O-β-D-glucopyranosyl-5-hydroxyphenyl)-3-(4-methoxyphenyl)-prop-2-en-1-one] | > 100 | > 100 | 6800 ± 60 |
| COc1ccccc1/C=C/C(=O)c1cc(OC2OC(CO)C(O)C(O)C2O)cc(OC2OC(CO)C(O)C(O)C2O)c1 [17a, (2E)-1-(3,5-di-O-β-D-glucopyranosylphenyl)-3-(2-methoxyphenyl)-prop-2-en-1-one] | > 100 | > 100 | 23600 ± 900 |
| COc1cccc(/C=C/C(=O)c2cc(OC3OC(CO)C(O)C(O)C3O)cc(OC3OC(CO)C(O)C(O)C3O)c2)c1 [17b, (2E)-1-(3,5-di-O-β-D-glucopyranosylphenyl)-3-(3-methoxyphenyl)-prop-2-en-1-one] | > 100 | > 100 | 16600 ± 620 |
| COc1ccc(/C=C/C(=O)c2cc(OC3OC(CO)C(O)C(O)C3O)cc(OC3OC(CO)C(O)C(O)C3O)c2)cc1 [17c, (2E)-1-(3,5-di-O-β-D-glucopyranosylphenyl)-3-(4-methoxyphenyl)-prop-2-en-1-one] | > 100 | 34.4 ± 1.74 | 16300 ± 630 |
